Results taken from patent US20200163984A1, “USE OF ISOVALERYL SPIRAMYCIN I, II AND/OR III IN MANUFACTURING MEDICAMENT FOR TREATING AND/OR PREVENTING TUMOR, AND MEDICAMENT” (SHENYANG FUYANG PHARMACEUTICAL TECHNOLOGY CO., LTD., priority 2017, published 2020).

Key:
[1] = Thymus index and spleen index of H22 liver cancer tumor-bearing mice
Procedure: (§1) In the H22 liver cancer model, the mice inoculated with the tumor were randomly divided into groups with 10 mice in each group on the next day of inoculation. The groups included: a model control group, a positive drug cyclophosphamide control group (CTX, 26 mg/kg), isovaleryl spiramycin I groups with doses of 13, 26 and 52 mg/kg; isovaleryl spiramycin II groups with doses of 13, 26 and 52 mg/kg; isovaleryl spiramycin III groups with doses of 13, 26 and 52 mg/kg. Each group was continuously administered intragastrically for 7 days with a dose of 20 ml/kg.

[2] = Thymus index and spleen index of Lewis lung cancer tumor-bearing mice; conditions: n = 6
Procedure: as §1, with “the Lewis lung” for “the H22 liver”, “group” for “group on”, “(CTX, 30” for “(CTX, 26”, “for 15” for “for 7”

[3] = test system: transplanted tumor of human non-small cell lung cancer cell A549; assay: A549 transplanted tumor in nude mice; conditions: for Tumor Volume (mm3) (d 1): d1
Procedure: A549 cells in a logarithmic growth phase were taken and subjected to a trypan blue exclusion experiment showing that the cell viability was more than 95%, then the cells were subjected to trypsinization, centrifugation, and supernatant removal. Then cell concentration was adjusted to 1×10^7/ml with matrigel, then each nude mouse was inoculated subcutaneously with 0.2 ml of cells at its right armpit and recorded as the first day of inoculation. When the tumor grows to be greater than or equal to 100 mm^3, the mice were randomly divided into 11 groups with 6 mice in each group: a model group, a cyclophosphamide group, isovaleryl spiramycin I groups with doses of 25, 50 and 100 mg/kg, isovaleryl spiramycin II groups with doses of 25, 50 and 100 mg/kg, and isovaleryl spiramycin III groups with doses of 25, 50 and 100 mg/kg. Each group was continuously administered intragastrically for 30 days with a dose of 20 ml/kg. The mice were sacrificed the next day after drug withdrawal and the indicators were tested. The long diameter and short diameter of the tumor, and the body weight of each mouse were recorded every 3 days from drug administration to nude mouse sacrifice.
The body weight of the nude mice and the long diameter (a) and short diameter (b) of the transplanted tumor were measured every 3 days, and the tumor volume (v), relative tumor volume (RTV) and relative tumor proliferation rate (T/C) are calculated respectively according to the following formulas, wherein V=a×b^2/2; RTV=V/V0 (V0 is the tumor volume before administration, V is the tumor volume before sacrifice), and T/C (%)=treatment group RTV/model control group RTV×100%.
Each mouse was weighed and sacrificed. After the tumor was completely stripped off from the body of the mouse, the non-tumor tissues such as blood stains and fat were removed to weigh the tumor and calculate the tumor growth inhibition rate. The average tumor weight of each group of mice is used as an indicator of efficacy. Tumor growth inhibition rate (%)=(1−the average tumor weight of the treatment group/the average tumor weight of the model group)×100%.

[4] = test system: transplanted tumor of mouse Lewis lung cancer; assay: Transplanted tumor of mouse Lewis lung cancer; conditions: for Tumor Volume (mm3) (d 1) / Tumor Volume (mm3) (d30) / Relative Tumor Proliferation Rate (T/C) / Relative Tumor Volume (RTV): title prints KM mouse H22 cells; for Tumor Volume (mm3) (d30): d 30; for Body Weight (g) (d1) / Body Weight (g) (d 15): mouse, in vivo
Procedure: Lewis lung cancer cells were cultured in a RPMI 1640 culture medium containing 10% fetal bovine serum at 37° C. in a 5% CO2 incubator. The cells in the logarithmic growth phase were subjected to trypsinization with 0.25% trypsin, then the cells were collected to be centrifugated to remove the obtained supernatant, then were washed twice with sterile normal saline. […] The Lewis cells were adjusted to 1×10^7/mL in concentration and stored in ice water. 75% ethanol was used to disinfect the skin under the right armpits of the mice, and each C57BL/6 mouse was soon inoculated subcutaneously with 0.2 ml of the cells at its right armpit.
as §1, with “the Lewis lung” for “the H22 liver”, “group” for “group on”, “(CTX, 30” for “(CTX, 26”, “for 15” for “for 7”
The tumor-bearing mice were weighed and sacrificed the next day after the last administration. The subcutaneous tumors were dissected and weighed. The average tumor weight of each group is calculated, and the tumor inhibition rate is calculated.
Tumor inhibition rate=(1−T/C)×100%
T: average tumor weight of the drug-administered group; C: average tumor weight of the blank control group.

[5] = A549, high dose (100 mg/kg in method) i.g. 30 days
[6] = A549, low dose (25 mg/kg in method) i.g. 30 days
[7] = A549, medium dose (50 mg/kg in method) i.g. 30 days

mouse weight compared with the model group ([3]; mouse, in vivo): no significant changes
Structure (SMILES): COC1C(OC(C)=O)CC(=O)OC(C)CC=CC=CC(OC2CCC(N(C)C)C(C)O2)C(C)CC(CC=O)C1OC1OC(C)C(OC2CC(C)(O)C(OC(=O)CC(C)C)C(C)O2)C(N(C)C)C1O (stereo not drawn) [Isovaleryl spiramycin II, isovaleryl spiramycin II]
Spleen Index (%) ([1]; dose 13 mg/kg): 0.59 ± 0.24%
Thymus Index (%) ([1]; dose 13 mg/kg): 0.12 ± 0.05%
Spleen Index (%) ([1]; dose 26 mg/kg): 0.68 ± 0.24%
Thymus Index (%) ([1]; dose 26 mg/kg): 0.16 ± 0.03%
Spleen Index (%) ([1]; dose 52 mg/kg): 0.64 ± 0.17%
Thymus Index (%) ([1]; dose 52 mg/kg): 0.17 ± 0.10%
Spleen Index (%) ([2]; dose 13 mg/kg): 0.75 ± 0.24%
Thymus Index (%) ([2]; dose 13 mg/kg): 0.12 ± 0.08%
Spleen Index (%) ([2]; dose 26 mg/kg): 0.68 ± 0.21%
Thymus Index (%) ([2]; dose 26 mg/kg): 0.14 ± 0.02%
Spleen Index (%) ([2]; dose 52 mg/kg): 0.66 ± 0.17%
Thymus Index (%) ([2]; dose 52 mg/kg): 0.15 ± 0.09%
Relative Tumor Proliferation Rate (T/C) [3, 5]: 39.42%
tumor growth inhibition rate [3, 5]: 60.19%
Relative Tumor Proliferation Rate (T/C) [3, 6]: 83.41%
tumor growth inhibition rate [3, 6]: 20.73%
tumor volume and relative tumor volume compared with the model group ([3]; A549, low, medium and high doses, P<0.05): significantly lower
Relative Tumor Proliferation Rate (T/C) [3, 7]: 58.75%
tumor growth inhibition rate [3, 7]: 31.87%
Inhibition Rate (%) ([3]; A549 nude mice, 25 mg/kg): 20.73%
Relative Tumor Proliferation Rate (T/C) ([3]; A549 nude mice, 25 mg/kg): 83.41%
Relative Tumor Volume (RTV) ([3]; A549 nude mice, 25 mg/kg): 13.54 ± 1.07
Tumor Weight ([3]; A549 nude mice, 25 mg/kg): 1.90 ± 0.31 g
Tumor Volume (mm3) (d 1) ([3]; A549 nude mice, 25 mg/kg): 119.67 ± 7.25 mm3
Tumor Volume (mm3) (d30) ([3]; A549 nude mice, 25 mg/kg): 1614.91 ± 65.26 mm3
Inhibition Rate (%) ([3]; A549 nude mice, 50 mg/kg): 31.87%
Relative Tumor Proliferation Rate (T/C) ([3]; A549 nude mice, 50 mg/kg): 58.75%
Relative Tumor Volume (RTV) ([3]; A549 nude mice, 50 mg/kg): 9.54 ± 2.62
Tumor Weight ([3]; A549 nude mice, 50 mg/kg): 1.63 ± 0.32 g
Tumor Volume (mm3) (d 1) ([3]; A549 nude mice, 50 mg/kg): 117.96 ± 4.88 mm3
Tumor Volume (mm3) (d30) ([3]; A549 nude mice, 50 mg/kg): 1129.10 ± 326.54 mm3
Inhibition Rate (%) ([3]; A549 nude mice, 100 mg/kg): 60.19%
Relative Tumor Proliferation Rate (T/C) ([3]; A549 nude mice, 100 mg/kg): 47.94%
Relative Tumor Volume (RTV) ([3]; A549 nude mice, 100 mg/kg): 7.78 ± 2.03
Tumor Weight ([3]; A549 nude mice, 100 mg/kg): 0.95 ± 0.42 g
Tumor Volume (mm3) (d 1) ([3]; A549 nude mice, 100 mg/kg): 116.96 ± 6.56 mm3
Tumor Volume (mm3) (d30) ([3]; A549 nude mice, 100 mg/kg): 917.10 ± 270.86 mm3
Body Weight (g) (d1) ([3]; mouse, in vivo, 25 mg/kg): 20.91 ± 1.07 g
Body Weight (g) (d30) ([3]; mouse, in vivo, 25 mg/kg): 21.32 ± 1.88 g
Body Weight (g) (d1) ([3]; mouse, in vivo, 50 mg/kg): 20.03 ± 1.88 g
Body Weight (g) (d30) ([3]; mouse, in vivo, 50 mg/kg): 12.92 ± 1.68 g
Body Weight (g) (d1) ([3]; mouse, in vivo, 100 mg/kg): 21.71 ± 1.94 g
Body Weight (g) (d30) ([3]; mouse, in vivo, 100 mg/kg): 12.42 ± 1.37 g
growth of Lewis lung cancer in mice ([4]; 13, 26 and 52 mg/kg i.g. 15 days): significantly inhibit
Tumor Volume (mm3) (d 1) ([4]; dose 12.5 mg/kg): 104.18 ± 19.49 mm3
Tumor Volume (mm3) (d30) ([4]; dose 12.5 mg/kg): 1304.48 ± 379.51 mm3
Relative Tumor Proliferation Rate (T/C) ([4]; dose 12.5 mg/kg): 80.51
Relative Tumor Volume (RTV) ([4]; dose 12.5 mg/kg): 12.89 ± 4.69
Inhibition Rate (%) ([4]; dose 13 mg/kg): 38.67%
Tumor Weight ([4]; dose 13 mg/kg): 0.98 ± 0.37 g
Tumor Volume (mm3) (d 1) ([4]; dose 25 mg/kg): 103.63 ± 19.46 mm3
Tumor Volume (mm3) (d30) ([4]; dose 25 mg/kg): 1119.26 ± 338.67 mm3
Relative Tumor Proliferation Rate (T/C) ([4]; dose 25 mg/kg): 68.97
Relative Tumor Volume (RTV) ([4]; dose 25 mg/kg): 11.04 ± 4.07
Inhibition Rate (%) ([4]; dose 26 mg/kg): 44.26%
Tumor Weight ([4]; dose 26 mg/kg): 0.89 ± 0.18 g
Tumor Volume (mm3) (d 1) ([4]; dose 50 mg/kg): 103.38 ± 18.03 mm3
Tumor Volume (mm3) (d30) ([4]; dose 50 mg/kg): 798.42 ± 189.19 mm3
Relative Tumor Proliferation Rate (T/C) ([4]; dose 50 mg/kg): 48.76
Relative Tumor Volume (RTV) ([4]; dose 50 mg/kg): 7.81 ± 1.76
Inhibition Rate (%) ([4]; dose 52 mg/kg): 56.34%
Tumor Weight ([4]; dose 52 mg/kg): 0.70 ± 0.21 g
Body Weight (g) (d1) ([4]; 13 mg/kg): 20.33 ± 0.64 g
Body Weight (g) (d 15) ([4]; 13 mg/kg): 22.17 ± 1.74 g
Body Weight (g) (d1) ([4]; 26 mg/kg): 19.62 ± 1.43 g
Body Weight (g) (d 15) ([4]; 26 mg/kg): 22.38 ± 0.96 g
Body Weight (g) (d1) ([4]; 52 mg/kg): 20.05 ± 0.67 g
Body Weight (g) (d 15) ([4]; 52 mg/kg): 22.75 ± 0.95 g
